Source: ChEMBL document CHEMBL3272154, “Synthesis of 1- and 2-substituted indazoles as anthelmintic agents” (1976)
Calls of active or inactive are those of the source. The rule behind the calls is not given here.

Columns and labels:
Trichinella spiralis [1] = assay: Anthelmintic activity against Trichinella spiralis infected in sheep assessed as reduction in intestinal nematode burden at 25 mg/kg, po after 7 days post dose; format: functional; details: 168 h
Trichinella spiralis [2] = assay: Anthelmintic activity against Trichinella spiralis infected in mouse assessed as reduction in nematode level at 25 mg/kg, po and 25 mg/kg, sc administered 8 hrs post infection; format: functional
Trichinella spiralis [3] = assay: Anthelmintic activity against Trichinella spiralis infected in sheep assessed as reduction in intestinal nematode burden at 15 mg/kg, po after 7 days post dose; format: functional; details: 168 h
Trichinella spiralis [4] = assay: Anthelmintic activity against Trichinella spiralis infected in po dosed sheep assessed as reduction in intestinal nematode burden; format: functional, organism-based

Compound | inhibition in vivo at 25 mg/kg (Trichinella spiralis [1]) | inhibition in vivo at 25 mg/kg (Trichinella spiralis [2]) | inhibition in vivo at 15 mg/kg (Trichinella spiralis [3]) | Activity (Trichinella spiralis [4])
COC(=O)Nc1nc2ccccc2[nH]1 [CARBENDAZIM] | 98% | 0% | – | –
O=C(OCc1ccccc1)n1cc2ccccc2n1 | – | 74% | 0% | –
CCCCCCCN(C)C(=O)Nc1nc2ccccc2[nH]1 | – | 14% | 0% | –
CCCCCCN(C)C(=O)n1cc2cc(Cl)ccc2n1 | – | 40% | – | –
O=C(Nc1nc2ccccc2[nH]1)c1ccco1 | 99% | – | – | –
O=C(c1ccco1)n1ncc2ccccc21 | – | 16% | 0% | –
COC(=O)n1ncc2ccccc21 | – | 23% | – | –
CCCCCCCN(C)C(=O)n1nc2ccccc2n1 | – | – | – | Active
COC(=O)n1cc2ccccc2n1 | – | 26% | – | –
CCCCc1ccc2[nH]c(NC(=O)OC)nc2c1 [PARBENDAZOLE] | 99% | 99% | – | –
CCCCCCCN(C)C(=O)n1cc2ccccc2n1 | – | 45% | 0% | –
O=C(c1ccco1)n1cc2ccccc2n1 | – | 58% | 0% | –
O=C(c1cnc2ccccc2n1)n1cc2ccccc2n1 | – | 36% | – | –
CCCCCCN(C)C(=O)n1ncc2ccc([N+](=O)[O-])cc21 | – | 41% | – | –
